# Data: the supplement of paper PMC10307832
# Assays:
# Test in all cases: relative viability (nuclei count vs DMSO), 5 days (fraction); higher = more cells survive
# [1] = compound: Cc1ccc2nc(NCCN)c3ncc(C)n3c2c1 + Nc1nc2[nH]cc(CCc3ccc(C(=O)N[C@@H](CCC(=O)O)C(=O)O)cc3)c2c(=O)[nH]1 [Pemetrexed] (partner 0.2 µM)
# Summary of the method: (§1)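 Relative viability equals treated-well nuclei counts divided by vehicle-well nuclei counts. Counts came from 4× images of lung cancer cell lines grown in 1536-well plates for 5 days after pin-tool dosing on the day after seeding. Dosing used one drug alone or a fixed anchor-drug dose plus five library-drug doses (not always all listed) in √10 steps, and values are medians of duplicate plates.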
# [2] = compound: Cc1ccc2nc(NCCN)c3ncc(C)n3c2c1 + CC(C)C[C@H](NC(=O)[C@H](Cc1ccccc1)NC(=O)c1cnccn1)B(O)O [Bortezomib] (partner 0.002 µM)
# Summary of the method: as §1
# [3] = compound: Cc1ccc2nc(NCCN)c3ncc(C)n3c2c1 + CC1(C)CCC(c2ccc(Cl)cc2)=C(CN2CCN(c3ccc(C(=O)NS(=O)(=O)c4ccc(N[C@H](CCN5CCOCC5)CSc5ccccc5)c(S(=O)(=O)C(F)(F)F)c4)cc3)CC2)C1 [Navitoclax] (partner 0.5 µM)
# Summary of the method: as §1
# Salubrinal + Phenformin = compound: O=C(/C=C/c1ccccc1)NC(NC(=S)Nc1cccc2cccnc12)C(Cl)(Cl)Cl [Salubrinal] + N=C(N)NC(=N)NCCc1ccccc1 [Phenformin] (partner 250 µM)
# Summary of the method: as §1
Cell Line,relative viability ([1]; first compound 0.04 µM),relative viability ([1]; first compound 0.1265 µM),relative viability ([1]; first compound 0.4 µM),relative viability ([1]; first compound 1.265 µM),relative viability ([1]; first compound 4 µM),relative viability ([2]; first compound 0.04 µM),relative viability ([2]; first compound 0.1265 µM),relative viability ([2]; first compound 0.4 µM),relative viability ([2]; first compound 1.265 µM),relative viability ([2]; first compound 4 µM),relative viability ([3]; first compound 0.04 µM),relative viability ([3]; first compound 0.1265 µM),relative viability ([3]; first compound 0.4 µM),relative viability ([3]; first compound 1.265 µM),relative viability ([3]; first compound 4 µM),relative viability (Salubrinal + Phenformin; first compound 0.08 µM),relative viability (Salubrinal + Phenformin; first compound 0.253 µM),relative viability (Salubrinal + Phenformin; first compound 0.8 µM),relative viability (Salubrinal + Phenformin; first compound 2.53 µM),relative viability (Salubrinal + Phenformin; first compound 8 µM)
201T,0.372,0.321,0.323,0.276,0.343,1.11,1.2,1.09,1.11,1.11,1.25,1.22,1.14,1.17,1.23,0.44,0.32,0.508,0.462,0.456
A549,–,–,–,–,–,–,–,–,–,–,1.27,1.25,1.37,1.2,0.955,0.174,0.143,0.175,0.119,0.17
A-427,0.979,0.939,1.02,0.95,0.948,1.05,1.15,0.929,0.978,0.962,0.914,0.864,0.946,1.02,0.968,0.326,0.336,0.382,0.292,0.28
ABC-1,–,–,–,–,–,0.402,0.223,0.337,0.282,0.263,–,–,–,–,–,0.225,0.268,0.281,0.214,0.24
BEN,0.978,0.894,0.817,0.712,0.801,0.929,0.789,0.849,0.834,0.868,0.0603,0.0647,0.0665,0.0492,0.0759,0.269,0.259,0.432,0.273,0.249
CAL-12T,1.42,1.13,1.15,1.04,1.03,1.03,0.889,0.9,0.978,0.776,1.26,1.14,1.25,1.33,1.17,0.627,0.485,0.613,0.578,0.438
COR-L23,0.191,0.191,0.204,0.218,0.208,1.07,0.913,0.928,0.989,0.91,1.05,0.944,1.1,0.973,0.886,0.526,0.359,0.458,0.422,0.433
COR-L 105,1.19,1.21,0.996,1.23,1.11,0.89,0.867,0.723,0.853,0.737,0.809,0.802,0.802,0.899,0.698,0.556,0.479,0.452,0.511,0.42
Calu-6,–,–,–,–,–,1.08,0.891,1.03,0.912,0.603,0.829,0.799,1.05,0.807,0.321,–,–,–,–,–
ChaGo-K-1,0.248,0.267,0.256,0.252,0.253,1.01,1,1.01,0.973,0.607,0.983,1.15,0.913,0.976,0.782,0.506,0.461,0.535,0.455,0.45
EBC-1,–,–,–,–,–,0.549,0.526,0.486,0.406,0.31,0.388,0.393,0.327,0.334,0.191,–,–,–,–,–
EKVX,0.394,0.404,0.387,0.36,0.313,0.998,0.994,0.996,1.17,0.951,1.1,0.964,0.924,0.992,0.883,0.228,0.23,0.236,0.203,0.228
EMC-BAC-2,0.463,0.43,0.4,0.448,0.496,1.12,1.12,0.957,1.13,1.05,1.17,1.18,1.06,1.15,1.17,0.471,0.326,0.601,0.513,0.493
EPLC-272H,0.278,0.358,0.488,0.281,0.414,0.914,0.782,0.911,0.805,0.97,1.01,1.09,1.17,1.04,0.93,0.256,0.236,0.342,0.259,0.282
H3255,0.573,0.568,0.536,0.557,0.525,0.976,0.745,0.695,0.943,0.691,0.666,0.479,0.638,0.535,0.469,0.364,0.349,0.44,0.386,0.335
HARA,0.217,0.237,0.226,0.236,0.234,1.14,1.11,1.13,1.06,1.1,1.16,1.15,1.14,1.08,1.21,0.607,0.484,0.483,0.445,0.47
HCC-15,0.233,0.203,0.223,0.252,0.236,1.02,1,0.864,0.975,0.783,0.702,0.732,0.684,0.677,0.675,0.524,0.431,0.533,0.487,0.391
HCC-44,0.679,0.704,0.643,0.594,0.709,0.93,0.897,0.806,0.882,0.922,1.1,0.901,0.951,0.829,0.937,0.193,0.212,0.391,0.364,0.182
